Assay results: patent publication US20090054392A1, “NAPHTHYLPYRIMIDINE, NAPHTHYLPYRAZINE AND NAPHTHYLPYRIDAZINE ANALOGS AND THEIR USE AS AGONISTS OF THE WNT-BETA-CATENIN CELLULAR MESSAGING SYSTEM” (Wyeth, priority 2007, published 2009)

System: Dkk1-LRP5-TCF-Luciferase
Experiment: Functional Dkk1-LRP5-TCF-Luciferase Assay in U2OS Cells
Details: for EC50 / fold induction at 2 µM / fold induction at 20 µM: Homo sapiens, U2OS; for fold induction at 2 µM: read-out: B = TCF ACTIVITY/DMSO CONTROL Fold induction @ 2.0 uM, 2.0 uM compound; for fold induction at 20 µM: read-out: C = TCF ACTIVITY/DMSO CONTROL Fold induction @ 20.0 uM, 20.0 uM compound; for A = MAX FOLD Induction/DMSO CONTROL: maximum fold induction over DMSO control

For `CC(=O)N1CC[C@@H](Nc2nccc(-c3ccc4ccccc4c3)n2)C1` [N-[(3R)-1-acetylpyrrolidin-3-yl]-4-(2-naphthyl)pyrimidin-2-amine], the EC50 was 14.2 µM, the fold induction at 2 µM was 1.21 and the fold induction at 20 µM was 2.06. The “A = MAX FOLD Induction/DMSO CONTROL” value was 2.980 fold.

Work on `O=C(c1ccccc1)N1CC[C@@H](Nc2nccc(-c3ccc4ccccc4c3)n2)C1` [N-[(3R)-1-benzoylpyrrolidin-3-yl]-4-(2-naphthyl)pyrimidin-2-amine] yielded a fold induction at 2 µM of 1.84.

`CS(=O)(=O)N1CC[C@H](Nc2nccc(-c3ccc4ccccc4c3)n2)C1` [N-[(3S)-1-(methylsulfonyl)pyrrolidin-3-yl]-4-(2-naphthyl)pyrimidin-2-amine] was tested, and the EC50 was 2.9 µM, the fold induction at 2 µM was 1.41 and the fold induction at 20 µM was 2.26. For the same compound, the “A = MAX FOLD Induction/DMSO CONTROL” value was 2.585 fold.

Compound `O=C(N1CCOCC1)N1CC[C@H](Nc2nccc(-c3ccc4ccccc4c3)n2)C1` [N-[(3S)-1-(morpholin-4-ylcarbonyl)pyrrolidin-3-yl]-4-(2-naphthyl)pyrimidin-2-amine] has a fold induction at 2 µM of 1.12 and a fold induction at 20 µM of 1.94.

Work on `CC(=O)N1CC[C@H](Nc2nccc(-c3ccc4ccccc4c3)n2)C1` [N-[(3S)-1-acetylpyrrolidin-3-yl]-4-(2-naphthyl)pyrimidin-2-amine] yielded a fold induction at 2 µM of 1.15 and a fold induction at 20 µM of 1.66.

Compound `O=C(c1ccccc1)N1CC[C@H](Nc2nccc(-c3ccc4ccccc4c3)n2)C1` [N-[(3S)-1-benzoylpyrrolidin-3-yl]-4-(2-naphthyl)pyrimidin-2-amine] has a fold induction at 2 µM of 1.23.

`CN(c1nccc(-c2ccc3ccccc3c2)n1)[C@H]1CC[C@@H](CN)CC1` [N-[cis-4-(aminomethyl)cyclohexyl]-N-methyl-4-(2-naphthyl)pyrimidin-2-amine] showed a fold induction at 2 µM of 2.7.

Compound `CN(c1nccc(-c2ccc3ccccc3c2)n1)[C@H]1CC[C@H](CN)CC1` [N-[trans-4-(aminomethyl)cyclohexyl]-N-methyl-4-(2-naphthyl)pyrimidin-2-amine] has a fold induction at 2 µM of 1.4.

With `c1ccc(CNc2nccc(-c3ccc4ccccc4c3)n2)cc1` [N-benzyl-4-(2-naphthyl)pyrimidin-2-amine] the fold induction at 2 µM was 1.71.

`CN(CCN(C)[C@@H]1CCN(c2nccc(-c3ccc4ccccc4c3)n2)C1)Cc1ccccc1` [N-benzyl-N,N′-dimethyl-N′-{(3R)-1-[4-(2-naphthyl)pyrimidin-2-yl]pyrrolidin-3-yl}ethane-1,2-diamine] gave a fold induction at 2 µM of 1.6.

In the case of `CCCCNc1nccc(-c2ccc3ccccc3c2)n1` [N-butyl-4-(2-naphthyl)pyrimidin-2-amine], the fold induction at 2 µM is reported as 1.51.

`c1ccc2cc(-c3ccnc(NC4CCCCC4)n3)ccc2c1` [N-cyclohexyl-4-(2-naphthyl)pyrimidin-2-amine] was tested, and the fold induction at 2 µM was 1.21, the fold induction at 20 µM was 1.51 and the “A = MAX FOLD Induction/DMSO CONTROL” value was 1.230 fold.

For `O=C(NC1CCCCC1)N1CCC(CNc2nccc(-c3ccc4ccccc4c3)n2)CC1` [N-cyclohexyl-4-({[4-(2-naphthyl)pyrimidin-2-yl]amino}methyl)piperidine-1-carboxamide], the fold induction at 2 µM was 1.81, the fold induction at 20 µM was 0.067 and the “A = MAX FOLD Induction/DMSO CONTROL” value was 1.230 fold.

In the case of `O=C(NC1CCCCC1)N1CCC(Nc2nccc(-c3ccc4ccccc4c3)n2)CC1` [N-cyclohexyl-4-{[4-(2-naphthyl)pyrimidin-2-yl]amino}piperidine-1-carboxamide], the fold induction at 20 µM is reported as 1.45.

Compound `c1ccc2cc(-c3ccnc(NC4CCCC4)n3)ccc2c1` [N-cyclopentyl-4-(2-naphthyl)pyrimidin-2-amine] has a fold induction at 2 µM of 1.95 and a fold induction at 20 µM of 0.83.

`CCNC(=O)N1CC(CNc2nccc(-c3ccc4ccccc4c3)n2)C1` [N-ethyl-3-({[4-(2-naphthyl)pyrimidin-2-yl]amino}methyl)azetidine-1-carboxamide] gave a fold induction at 2 µM of 1.57.

Work on `CCNC(=O)N1CCC(CNc2nccc(-c3ccc4ccccc4c3)n2)CC1` [N-ethyl-4-({[4-(2-naphthyl)pyrimidin-2-yl]amino}methyl)piperidine-1-carboxamide] yielded a fold induction at 2 µM of 1.35 and a fold induction at 20 µM of 1.3.

`CCNC(=O)N1CCCN(c2nccc(-c3ccc4ccccc4c3)n2)CC1` [N-ethyl-4-[4-(2-naphthyl)pyrimidin-2-yl]-1,4-diazepane-1-carboxamide] was tested, and the EC50 was 12.7 µM, the fold induction at 20 µM was 2.58 and the “A = MAX FOLD Induction/DMSO CONTROL” value was 1.640 fold.

`CCNC(=O)N1CCC(Nc2nccc(-c3ccc4ccccc4c3)n2)CC1` [N-ethyl-4-{[4-(2-naphthyl)pyrimidin-2-yl]amino}piperidine-1-carboxamide] was tested, and the EC50 was 18.2 µM, the fold induction at 2 µM was 1.14 and the fold induction at 20 µM was 1.6. The “A = MAX FOLD Induction/DMSO CONTROL” value was 2.280 fold.

In the case of `CCNC(=O)N1CCC(N(C)c2nccc(-c3ccc4ccccc4c3)n2)CC1` [N-ethyl-4-{methyl[4-(2-naphthyl)pyrimidin-2-yl]amino}piperidine-1-carboxamide], the fold induction at 2 µM is reported as 1.2 and the fold induction at 20 µM is reported as 1.45.

`CCN(C)CCN(C)[C@@H]1CCN(c2nccc(-c3ccc4ccccc4c3)n2)C1` [N-ethyl-N,N′-dimethyl-N′-{(3R)-1-[4-(2-naphthyl)pyrimidin-2-yl]pyrrolidin-3-yl}ethane-1,2-diamine] was tested, and the fold induction at 2 µM was 1.8.

With `CCN(CCO)C(=O)[C@@H]1CCCN1c1nccc(-c2ccc3ccccc3c2)n1` [N-ethyl-N-(2-hydroxyethyl)-1-[4-(2-naphthyl)pyrimidin-2-yl]-L-prolinamide] the fold induction at 2 µM was 1.03 and the fold induction at 20 µM was 1.63.

Compound `CCN(CC)CC1CCN(c2nccc(-c3ccc4ccccc4c3)n2)CC1` [N-ethyl-N-({1-[4-(2-naphthyl)pyrimidin-2-yl]piperidin-4-yl}methyl)ethanamine] has a fold induction at 2 µM of 1.14 and a fold induction at 20 µM of 0.02.

In the case of `CCN(CC)CC1CCN(c2nccc(-c3ccc4ccccc4c3)n2)C1` (stereo not shown) [N-ethyl-N-({1-[4-(2-naphthyl)pyrimidin-2-yl]pyrrolidin-3-yl}methyl)ethanamine], the fold induction at 2 µM is reported as 1.58.

For `CCNC(=O)NCCC1CCN(c2nccc(-c3ccc4ccccc4c3)n2)CC1` [N-ethyl-N′-(2-{1-[4-(2-naphthyl)pyrimidin-2-yl]piperidin-4-yl}ethyl)urea], the fold induction at 2 µM was 1.78 and the fold induction at 20 µM was 1.87.

In the case of `CCNC(=O)NCCN1CCN(c2nccc(-c3ccc4ccccc4c3)n2)CC1` [N-ethyl-N′-(2-{4-[4-(2-naphthyl)pyrimidin-2-yl]piperazin-1-yl}ethyl)urea], the fold induction at 2 µM is reported as 1.09 and the fold induction at 20 µM is reported as 0.28.

`CCNC(=O)N[C@H]1CC[C@H](Nc2nccc(-c3ccc4ccccc4c3)n2)CC1` [N-ethyl-N′-(trans-4-{[4-(2-naphthyl)pyrimidin-2-yl]amino}cyclohexyl)urea] was tested, and the fold induction at 2 µM was 2.84, the fold induction at 20 µM was 2.35 and the “A = MAX FOLD Induction/DMSO CONTROL” value was 2.740 fold.

Work on `CCNC(=O)NCC1CN(c2nccc(-c3ccc4ccccc4c3)n2)C1` [N-ethyl-N′-({1-[4-(2-naphthyl)pyrimidin-2-yl]azetidin-3-yl}methyl)urea] yielded a fold induction at 20 µM of 1.06.

`CCNC(=O)NCC1CCN(c2nccc(-c3ccc4ccccc4c3)n2)CC1` [N-ethyl-N′-({1-[4-(2-naphthyl)pyrimidin-2-yl]piperidin-4-yl}methyl)urea] gave a fold induction at 2 µM of 1.7 and a fold induction at 20 µM of 1.34.

`CCNC(=O)NCC1CCN(c2nccc(-c3ccc4ccccc4c3)n2)C1` (stereo not shown) [N-ethyl-N′-({1-[4-(2-naphthyl)pyrimidin-2-yl]pyrrolidin-3-yl}methyl)urea] was tested, and the fold induction at 2 µM was 0.93 and the fold induction at 20 µM was 1.2.
